# In ChEMBL document CHEMBL1143055, “2,3,5-Substituted tetrahydrofurans as cancer chemopreventives. Part 1: synthesis and anti-cancer activities of 5-hydroxymethyl-2,3-diaryl-tetrahydro-furan-3-ols” (2007):
# What was measured:
# MCF7 = assay: Antitumor activity against human MCF7 cells; type: functional
# NCI/ADR-RES = assay: Antitumor activity against human NCI/ADR-RES cells; type: functional
# [1] = Antitumor activity against human […] cells; type: functional
# [2] = Antitumor activity against human HS 578T cells; type: functional
# CCRF-CEM = assay: Antitumor activity against human CCRF-CEM cells; type: functional
# [3] = Antitumor activity against human HL60 (TB) cells; type: functional, HL-60(TB); conditions: HL-60
# K562 = assay: Antitumor activity against human K562 cells; type: functional
# MOLT-4 = assay: Antitumor activity against human MOLT4 cells; type: functional
# RPMI-8226 = assay: Antitumor activity against human RPMI8226 cells; type: functional
# SR = assay: Antitumor activity against human SR cells; type: functional
# A549 = assay: Antitumor activity against human A549 cells; type: functional
# EKVX = assay: Antitumor activity against human EKVX cells; type: functional
# HOP-62 = assay: Antitumor activity against human HOP62 cells; type: functional
# HOP-92 = assay: Antitumor activity against human HOP92 cells; type: functional
# NCI-H226 = assay: Antitumor activity against human NCI-H226 cells; type: functional
# NCI-H23 = assay: Antitumor activity against human NCI-H23 cells; type: functional
# [4] = Antitumor activity against human NCI-H322 cells; type: functional
# NCI-H460 = assay: Antitumor activity against human NCI-H460 cells; type: functional
# NCI-H522 [5] = assay: Antitumor activity against human NCI-H522 cells; type: functional
# COLO 205 = assay: Antitumor activity against human COLO205 cells; type: functional
# HCC 2998 = assay: Antitumor activity against human HCC2998 cells; type: functional
# HCT-116 = assay: Antitumor activity against human HCT116 cells; type: functional
# HCT-15 = assay: Antitumor activity against human HCT15 cells; type: functional
# HT-29 = assay: Antitumor activity against human HT29 cells; type: functional
# KM12 = assay: Antitumor activity against human KM12 cells; type: functional
# SW-620 = assay: Antitumor activity against human SW620 cells; type: functional
# SF-268 = assay: Antitumor activity against human SF268 cells; type: functional
# SF-295 = assay: Antitumor activity against human SF295 cells; type: functional
# SF-539 = assay: Antitumor activity against human SF539 cells; type: functional
# SNB-19 = assay: Antitumor activity against human SNB19 cells; type: functional
# SNB-75 = assay: Antitumor activity against human SNB75 cells; type: functional
# U-251 = assay: Antitumor activity against human U251 cells; type: functional
# LOX IMVI = assay: Antitumor activity against human LOX IMVI cells; type: functional
# Malme-3M = assay: Antitumor activity against human MALME-3M cells; type: functional
# SK-MEL-28 = assay: Antitumor activity against human SK-MEL-28 cells; type: functional
# SK-MEL-5 = assay: Antitumor activity against human SK-MEL-5 cells; type: functional
# UACC-257 = assay: Antitumor activity against human UACC257 cells; type: functional
# UACC-62 = assay: Antitumor activity against human UACC62 cells; type: functional
# IGROV-1 [6] = assay: Antitumor activity against human IGROV1 cells; type: functional
# OVCAR-3 = assay: Antitumor activity against human OVCAR-3 cells; type: functional
# OVCAR-4 = assay: Antitumor activity against human OVCAR4 cells; type: functional
# OVCAR-5 = assay: Antitumor activity against human OVCAR5 cells; type: functional
# OVCAR-8 = assay: Antitumor activity against human OVCAR8 cells; type: functional
# SK-OV-3 = assay: Antitumor activity against human SK-OV-3 cells; type: functional
# 786-0 = assay: Antitumor activity against human 786-0 cells; type: functional
# A498 = assay: Antitumor activity against human A498 cells; type: functional
# ACHN = assay: Antitumor activity against human ACHN cells; type: functional
# CAKI-1 = assay: Antitumor activity against human CAKI-1 cells; type: functional
# RXF 393 = assay: Antitumor activity against human RXF393 cells; type: functional
# SN12C = assay: Antitumor activity against human SN12C cells; type: functional
# TK-10 = assay: Antitumor activity against human TK10 cells; type: functional
# UO-31 = assay: Antitumor activity against human UO31 cells; type: functional
# PC-3 = assay: Antitumor activity against human PC3 cells; type: functional
# DU-145 = assay: Antitumor activity against human DU145 cells; type: functional
# MDA-MB-435 = assay: Antitumor activity against human MDA-MB-435 cells; type: functional
# BT-549 = assay: Antitumor activity against human BT549 cells; type: functional
# NCI-H522 [7] = assay: Growth inhibition of human NCI-H522 cells at 1 uM; type: functional
# NCI-H522 [8] = assay: Growth inhibition of human NCI-H522 cells at 10 uM; type: functional
# IGROV-1 [9] = assay: Growth inhibition of human IGROV1 cells at 10 nM; type: functional
# IGROV-1 [10] = assay: Growth inhibition of human IGROV1 cells at 0.1 uM; type: functional
# IGROV-1 [11] = assay: Growth inhibition of human IGROV1 cells at 1 uM; type: functional
# IGROV-1 [12] = assay: Growth inhibition of human IGROV1 cells at 10 uM; type: functional
smiles,measurement,setting,value
OC[C@H]1C[C@](O)(c2ccccc2Cl)[C@@H](c2ccccc2Cl)O1 (relative stereo),GI50,MCF7,26.9 µM
same,GI50,NCI/ADR-RES,29.5 µM
same,GI50,[1],18.6 µM
same,GI50,[2],16.2 µM
same,GI50,CCRF-CEM,27.5 µM
same,GI50,[3],16.6 µM
same,GI50,K562,20 µM
same,GI50,MOLT-4,17 µM
same,GI50,RPMI-8226,21.9 µM
same,GI50,SR,17 µM
same,GI50,A549,22.9 µM
same,GI50,EKVX,19.1 µM
same,GI50,HOP-62,31.6 µM
same,GI50,HOP-92,22.4 µM
same,GI50,NCI-H226,26.3 µM
same,GI50,NCI-H23,25.7 µM
same,GI50,[4],32.4 µM
same,GI50,NCI-H460,20 µM
same,GI50,NCI-H522 [5],13.5 µM
same,GI50,COLO 205,14.8 µM
same,GI50,HCC 2998,29.5 µM
same,GI50,HCT-116,25.7 µM
same,GI50,HCT-15,28.2 µM
same,GI50,HT-29,17 µM
same,GI50,KM12,25.7 µM
same,GI50,SW-620,30.2 µM
same,GI50,SF-268,24 µM
same,GI50,SF-295,26.9 µM
same,GI50,SF-539,22.4 µM
same,GI50,SNB-19,31.6 µM
same,GI50,SNB-75,20.9 µM
same,GI50,U-251,28.2 µM
same,GI50,LOX IMVI,17 µM
same,GI50,Malme-3M,21.4 µM
same,GI50,SK-MEL-28,26.3 µM
same,GI50,SK-MEL-5,17 µM
same,GI50,UACC-257,19.1 µM
same,GI50,UACC-62,16.6 µM
same,GI50,IGROV-1 [6],11 µM
same,GI50,OVCAR-3,19.5 µM
same,GI50,OVCAR-4,24.5 µM
same,GI50,OVCAR-5,22.9 µM
same,GI50,OVCAR-8,26.3 µM
same,GI50,SK-OV-3,23.4 µM
same,GI50,786-0,26.3 µM
same,GI50,A498,22.9 µM
same,GI50,ACHN,27.5 µM
same,GI50,CAKI-1,32.4 µM
same,GI50,RXF 393,18.6 µM
same,GI50,SN12C,20.9 µM
same,GI50,TK-10,20.9 µM
same,GI50,UO-31,22.9 µM
same,GI50,PC-3,24 µM
same,GI50,DU-145,26.9 µM
same,GI50,MDA-MB-435,16.2 µM
same,GI50,BT-549,17 µM
same,inhibition at 1 µM,NCI-H522 [7],27%
same,inhibition at 10 µM,NCI-H522 [8],36%
same,inhibition at 0.01 µM,IGROV-1 [9],15%
same,inhibition at 0.1 µM,IGROV-1 [10],28%
same,inhibition at 1 µM,IGROV-1 [11],32%
same,inhibition at 10 µM,IGROV-1 [12],46%
